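1) Cells in 96-well plates. 2) Compound, 48 h, 5 concentrations. 3) Linear interpolation between surrounding doses. 4) Unreached endpoint = highest concentration. GI50 marks 50% less growth. TGI marks complete inhibition of growth.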
Columns and labels:
Assay in all cases: growth of human tumour cells (NCI), 48 h
BT-549 breast = test system: BT-549 breast
HCT-15 colon = test system: HCT-15 colon
K-562 leukemia = test system: K-562 leukemia
KM12 colon = test system: KM12 colon
MDA-MB-231 breast = test system: MDA-MB-231 breast
NCI/ADR-RES ovarian = test system: NCI/ADR-RES ovarian
OVCAR-8 ovarian = test system: OVCAR-8 ovarian
SF-539 CNS = test system: SF-539 CNS
SK-MEL-28 melanoma = test system: SK-MEL-28 melanoma
SW-620 colon = test system: SW-620 colon

Row | Compound | GI50 (BT-549 breast) [µM] | TGI (BT-549 breast) [µM] | GI50 (HCT-15 colon) [µM] | TGI (HCT-15 colon) [µM] | GI50 (K-562 leukemia) [µM] | TGI (K-562 leukemia) [µM] | GI50 (KM12 colon) [µM] | TGI (KM12 colon) [µM] | GI50 (MDA-MB-231 breast) [µM] | TGI (MDA-MB-231 breast) [µM] | GI50 (NCI/ADR-RES ovarian) [µM] | TGI (NCI/ADR-RES ovarian) [µM] | GI50 (OVCAR-8 ovarian) [µM] | TGI (OVCAR-8 ovarian) [µM] | GI50 (SF-539 CNS) [µM] | TGI (SF-539 CNS) [µM] | GI50 (SK-MEL-28 melanoma) [µM] | TGI (SK-MEL-28 melanoma) [µM] | GI50 (SW-620 colon) [µM] | TGI (SW-620 colon) [µM]
1 | CC(C)=CCc1cc2c(cc1O)C1=C(C(=O)C3=C(NCCS3(=O)=O)C1=O)C(C=C(C)C)O2 (stereo not given) | 14.1 | > 16.7 | 6.21 | > 16.7 | 5.02 | > 16.7 | 7.12 | > 16.7 | 4.18 | 16.2 | > 16.7 | > 16.7 | 4.75 | > 16.7 | 4.22 | 12.9 | 3.81 | 9.84 | 5 | > 16.7
2 | CN1CCN(Cc2ccc(NC(=O)c3cncc(C#Cc4cnc(N)c5ncccc45)c3)cc2C(F)(F)F)CC1 | 5.1 | 23.6 | 0.314 | 12.7 |  | 1.92 | < 0.0146 | 4.03 | 0.147 | 0.71 | 0.685 | 3.13 | 0.58 | 3.51 | 0.306 | 1.47 | 0.389 | 1.59 | 0.247 | 1.36
3 | N#CC1=C(N)Oc2c(sc3c(Br)cccc23)C1c1ccc([N+](=O)[O-])cc1 (stereo not given) | 0.319 | 5.31 | 0.0948 | 10.5 | 0.0458 | 13.5 | 0.0997 | 9.36 | 0.514 | 9.67 | 0.0398 | 8.37 | 0.227 | 12.2 | 0.0619 | 0.475 | 2.66 | 21 | 0.0708 | 14.5
4 | COc1cc2cc(NCc3cccc(Cl)c3)nc(C)c2cc1OC | 1.47 | 8.96 | 2.83 | 19.9 | 1.68 | 19.8 | 2.62 | 15.8 | 1.18 | 16.6 | 2.02 | 22.3 | 3.04 | 23.6 | 1.37 | 7.54 | 0.865 | 5.42 | 1.93 | 12.6
5 | COc1ccc(-c2csc3c2-n2cccc2C3=O)cc1 | 0.0492 |  | 0.0276 | > 100 | 0.00275 |  | 0.0133 |  |  | > 100 |  | > 100 | 0.068 | > 100 |  | 2.39 |  | > 100 | 0.0056 | > 100
6 | O=c1[nH]c2ccccc2n1C1CCNCC1 | > 100 | > 100 | > 100 | > 100 | > 100 | > 100 | > 100 | > 100 | > 100 | > 100 | > 100 | > 100 | > 100 | > 100 | > 100 | > 100 | > 100 | > 100 | > 100 | > 100
7 | COc1cc2c(c3oc(-c4ccc(O)cc4)c(O)c(=O)c13)CCC(C)(C)O2 | 0.279 | 0.836 | 0.169 | 0.392 | 0.112 |  | 0.384 | 23.4 | 0.101 | 0.312 | 0.309 | 0.829 | 0.292 | 0.856 | 0.0241 | 0.0586 | 0.21 | 0.93 | 0.0872 | 0.31
8 | COc1cccc2c1nc(C(F)F)n2-c1nc(-c2ccc(NS(=O)(=O)CCN(C)C)cc2)nc(N2CCOCC2)n1 | 0.314 | 16 | 0.152 | 5.06 | 1.2 | 11.4 | 0.275 | 12.8 | 0.617 | 37.2 | 0.434 | 33.6 | 0.295 | > 41.1 | 0.197 | 2.63 | 0.0774 | 2.5 | 0.341 | 6.78
9 | O=P1(NCCCl)OCCCN1CCCl (stereo not given) |  | > 500 |  | 429 |  | 466 |  | 448 |  | > 500 |  | 450 |  | 439 |  | 413 |  | 439 |  | 401
10 | C=CCC1(O)c2ccccc2C(=O)c2c(OCC(=O)OCC)ccc(OCC(=O)OCC)c21 (stereo not given) | > 100 | > 100 | > 100 | > 100 | > 100 | > 100 | > 100 | > 100 | 25.6 | > 100 | > 100 | > 100 | > 100 | > 100 | > 100 | > 100 | > 100 | > 100 | > 100 | > 100
11 | COC(=O)N[C@H]1CCc2cc(OC)c(OC)c(OC)c2-c2ccc(SC)c(=O)cc21 | < 0.01 | 11 | < 0.01 | > 47.3 | < 0.01 | > 100 | < 0.01 | > 100 | < 0.01 | 29 | 0.0247 | > 100 | < 0.01 | > 100 | < 0.01 |  | > 100 | > 100 | < 0.01 | > 100
12 | CCN(Cc1ccc(OC)cc1)c1ccc(CO)c(Cl)c1 | 12.7 | 37.4 | 12.2 | > 100 | 2.33 | > 100 | 18.3 | 44.7 | 18.9 | 61.3 | 15 | 49.6 | 14 | 52.4 | 19.9 | 46.3 | 16.3 | 36.6 | 1.04 | > 100
13 | Cn1cc(C2=C(c3ccsc3)C(=O)NC2=O)c2ccccc21 | > 25 | > 25 | > 22.7 | > 25 | > 25 | > 25 | > 25 | > 25 | > 25 | > 25 | > 25 | > 25 | > 25 | > 25 | 24.2 | > 25 | > 25 | > 25 | > 25 | > 25
14 | CN1C(=O)C(c2c[nH]c3ccccc23)=C(c2c[nH]c3ccccc23)C1=O | 8.14 | 24.7 | 5.77 | > 25 | 7.77 | > 25 | 5.66 | > 21.3 | 4.22 | 15.8 | 6.66 | > 25 | 7.67 | > 25 | 6.87 | > 25 | 7.84 | > 25 | 5.78 | > 25
15 | CC1=C(CCCOC(=O)[C@H](N)CC(C)C)C2=C(C)C3(CC3)[C@@](C)(O)C(=O)C2=C1 | 1.31 | 4.48 | 2.1 | > 100 | 34.3 | > 100 | 7.66 | > 100 | 2.03 | 6.42 | 2.14 | > 38.8 | 2.13 | > 33.3 | 1.61 | 4.25 | 2.11 | 5.51 | 19.6 | > 84
16 | C/C(=C\C(=O)O[C@H]1[C@@H]2[C@H](C)CC[C@H]2[C@]2(C)O[C@@]1(C1CCCCC1)C[C@H]2OC(=O)CO)c1ccccc1 | 0.12 | 4.21 | 6.81 | 13 | 7.82 | 17.6 | 6.44 | 13 | 6.67 | 13 | 0.348 | 7.49 | 4.27 | 10.7 | 7.1 | 13.2 | 6.78 | 12.6 | 6.78 | 13.3
17 | O=C1C=C(Nc2ccccc2)c2ccccc2C1=O | 1.73 | 3.16 | 1.77 | 3.98 | 2.64 | 7.81 | 2.94 | 9.17 | 1.88 | 7.61 | 2.48 | 8.82 | 2.71 | 12.8 | 1.81 | 3.47 | 2.13 | 4.46 | 2.1 | 5.33
18 | Cn1ncnc1[C@@H]1c2n[nH]c(=O)c3cc(F)cc(c23)N[C@H]1c1ccc(F)cc1 | > 100 | > 100 | > 100 | > 100 | > 100 | > 100 | > 100 | > 100 | > 100 | > 100 | > 100 | > 100 | > 100 | > 100 | > 100 | > 100 | > 100 | > 100 | > 100 | > 100
19 | CC1CCCCCC(=O)c2c(O)cc(O)cc2CC(=O)O1 (stereo not given) |  | > 100 |  | > 100 |  | > 100 |  | > 100 |  | > 100 |  | > 100 |  | > 100 |  | > 100 |  | > 100 |  | > 100
20 | CS(=O)(=O)OCCN(CCOS(C)(=O)=O)c1ccc(C=Nc2ccc(-c3csc(COc4ccccc4)n3)cc2)cc1 |  | 37 |  | 22.4 |  | > 76 |  | 19.8 |  | 42.7 |  | 49.7 |  | 19.6 |  | 14.7 |  | 25.5 |  | 52
21 | O=c1nc2n(-c3cccc(Cl)c3)c3ccc([N+](=O)[O-])cc3cc-2c(=O)[nH]1 | 4.2 | 11.8 | 9.28 | > 25 | 17.1 | > 25 | 3.13 | 7.57 | 5.36 | 12.3 | 6.15 | 19.7 | 17 | > 25 | 4.4 | 11.8 | 8.01 | > 25 | 2.3 | > 25

From PubChem BioAssay (NCI)
